Data reported in paper PMC3269340, “Pharmacokinetics of memantine in rats and mice” (PLoS Currents, 2012).
Values joined by “and” are separate entries in the source; they are usually repeats but may differ in a detail not shown here. Equal values may be shown once.

Legend:
OATP2B1 = target: T1, OATP2B1 (Homo sapiens, UniProt O94956); test: Indirect uptake transporter assay, OATP2B1; type: in vitro ADME
T1 construct: expressed in transfected cells; host or cells: MDCKII cells
T1 sequence (O94956 1-709): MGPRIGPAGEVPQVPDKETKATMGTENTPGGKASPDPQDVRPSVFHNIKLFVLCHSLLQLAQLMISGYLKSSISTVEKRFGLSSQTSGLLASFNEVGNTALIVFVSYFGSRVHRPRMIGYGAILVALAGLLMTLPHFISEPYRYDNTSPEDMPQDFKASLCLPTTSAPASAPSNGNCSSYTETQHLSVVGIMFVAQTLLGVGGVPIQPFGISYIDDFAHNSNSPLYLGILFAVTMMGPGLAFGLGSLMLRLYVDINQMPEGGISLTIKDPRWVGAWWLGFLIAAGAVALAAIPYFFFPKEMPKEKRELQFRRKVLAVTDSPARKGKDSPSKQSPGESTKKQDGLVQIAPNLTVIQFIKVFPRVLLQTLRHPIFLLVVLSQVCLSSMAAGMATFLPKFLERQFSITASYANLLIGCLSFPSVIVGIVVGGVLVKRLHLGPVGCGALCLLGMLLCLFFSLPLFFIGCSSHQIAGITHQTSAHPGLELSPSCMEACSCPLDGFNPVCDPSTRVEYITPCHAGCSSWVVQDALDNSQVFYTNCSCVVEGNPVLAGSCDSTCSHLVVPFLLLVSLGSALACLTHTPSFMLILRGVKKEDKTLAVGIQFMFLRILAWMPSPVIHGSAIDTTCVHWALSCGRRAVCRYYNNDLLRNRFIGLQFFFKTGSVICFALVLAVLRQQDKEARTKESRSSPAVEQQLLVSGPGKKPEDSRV
Source text: (§1) To determine whether memantine is an inhibitor of the human OATP2B1 (OATP-B), OCT1, OCT2, OAT3, PEPT1, PEPT2 uptake transporters. The standard uptake transporter assay is an indirect, inhibitory-type screening assay, performed with cold test article, which in this case was memantine. It provides information on any interaction (substrate or inhibitor) between selected uptake transporters and memantine that would affect the transport of the reporter compound. […] A radiolabeled reporter substrate is transported into the cells transfected with the selected human uptake transporter, and the inhibitory effect of memantine on the transport of this reporter substrate is measured. Values are presented on a relative scale; 100% defined as transport in the presence of the solvent and without memantine (no inhibition), and 0% defined as transport detected without transporter activity. IC50 is defined as the concentration required to inhibit the transport of the reporter substrate by 50%. […]
(§2) After the experiment cells were rinsed with 2 x 100µl of Krebs-Henseleit buffer and lysed with 50 µl of 0.1M NaOH. ^3H-estrone-3-sulfate, ^14C-TEA, ^14C-metformin and ^3H-Gly-Sar transport was determined by total radioactivity by transferring an aliquot (35µl) from each well to a vial containing liquid scintillant for analysis.

human OCT1 = target: T2, human OCT1 (Homo sapiens, UniProt O15245); test: Indirect uptake transporter assay, OCT1; type: in vitro ADME
T2 construct: expressed in transfected cells; host or cells: CHO cells
T2 sequence (O15245 1-554): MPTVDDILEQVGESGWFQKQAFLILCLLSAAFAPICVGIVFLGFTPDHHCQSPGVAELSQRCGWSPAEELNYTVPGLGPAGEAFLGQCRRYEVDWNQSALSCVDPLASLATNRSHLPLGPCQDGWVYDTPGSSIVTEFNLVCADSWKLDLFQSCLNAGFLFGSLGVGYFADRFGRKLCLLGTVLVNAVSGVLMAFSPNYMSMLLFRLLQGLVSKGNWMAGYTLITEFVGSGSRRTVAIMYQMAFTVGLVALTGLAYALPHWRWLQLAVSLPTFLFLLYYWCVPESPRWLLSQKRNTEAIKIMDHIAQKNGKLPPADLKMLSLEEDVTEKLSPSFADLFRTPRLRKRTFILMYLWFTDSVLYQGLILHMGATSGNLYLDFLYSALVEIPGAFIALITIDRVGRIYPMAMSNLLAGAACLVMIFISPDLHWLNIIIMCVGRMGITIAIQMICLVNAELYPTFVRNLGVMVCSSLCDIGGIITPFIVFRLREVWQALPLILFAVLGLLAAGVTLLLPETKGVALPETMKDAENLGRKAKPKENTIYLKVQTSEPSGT
Source text: as §1, §2

rat AD model = settings: cited from earlier work

CC12CC3CC(C)(C1)CC(N)(C3)C2 [memantine]
IC50 (OATP2B1; OATP2B1, probe printed in Table 5: TEA (3.6 μM), methods and text: E3S): > 300 µM
inhibition at 300 µM (OATP2B1; human, probe 3H-estrone-3-sulfate, at 300 µM, read-out: inhibition of OATP2B1-mediated estrone-3-sulfate transport): 67%
Maximal Inhibition (human OCT1; OCT1, up to 300 µM): ~94%
IC50 (human OCT1; OCT1, probe in Table 5: Gly-Sar (1.8 μM), methods and text: TEA): 3.5 µM and 3.51 µM
cognition (rat AD model): improved cognition
neuroprotection (rat AD model): elicited neuroprotective effects
